Test results reported in article PMC5829263, “Homoarginine and inhibition of human arginase activity: kinetic characterization and biological relevance” (Scientific Reports, 2018).
Several values for one entry are separate records, joined by “and”; a condition that tells them apart may be missing. Equal values may be shown once. Entries after “also recorded” stand apart in the source; their conditions may differ.

Legend:
[1] = biological target: T1, recombinant human arginase 2 (Homo sapiens, UniProt P78540); experiment: Arginase 2 inhibition, UPLC-MS measurement of ARG to ORN conversion in HEK293T cell lysate; settings: for % of control activity at the corresponding [Inhibitor] ± SE: mean of two experiments;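 as to all read-outs here: HEK293T lysate carrying arginase 2 at 0.1 mg/mL in 0.05 M phosphate buffer pH 7.4, inhibitor preincubated with enzyme 5 min before ARG addition started the reaction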
T1 sequence (P78540 23-354): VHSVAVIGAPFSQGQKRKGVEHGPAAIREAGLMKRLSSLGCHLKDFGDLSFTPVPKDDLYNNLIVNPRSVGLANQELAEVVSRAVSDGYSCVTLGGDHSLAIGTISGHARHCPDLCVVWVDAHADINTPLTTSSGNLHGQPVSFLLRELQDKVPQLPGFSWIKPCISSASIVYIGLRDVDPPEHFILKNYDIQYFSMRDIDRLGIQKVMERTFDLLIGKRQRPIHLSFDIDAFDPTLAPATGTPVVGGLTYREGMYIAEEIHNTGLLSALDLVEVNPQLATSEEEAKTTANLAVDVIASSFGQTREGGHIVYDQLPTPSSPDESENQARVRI
Protocol: (§1) Following a 5-min pre-equilibration period reactions were initiated by the addition of the cell lysate solution in 0.05 M phosphate buffer to a pre-equilibrated aqueous solution of the substrate (ARG).
(§2) The samples were vortex mixed (20 sec) and cooled in an ice/water bath for 10 min prior to centrifugation (5 min, 18,000 × g, room temperature) to precipitate the proteins. An aliquot of the supernatant layer was diluted with a 7:3 mobile phase A/mobile phase B solution into glass UPLC vial inserts.
(§3) Incubation mixtures comprised of HEK293T cell lysate expressing arginase 1 (0.05 mg/mL) or arginase 2 (0.1 mg/mL), phosphate buffer (0.05 M, pH 7.4), inhibitor (0, 0.1, 1, 10, 100, 1000 or 10000 μM) and ARG (0.1, 2 or 3 mM). Following a 5-min pre-incubation of the potential inhibitor with arginase 1 or arginase 2, reactions were initiated by the addition of a pre-equilibrated solution of the substrate ARG.
Sample were diluted 3:17 in mobile phase solution prior injection.

arginase 1 [2] = experiment: HOMOARG as a substrate for arginase 1, formation of LYS by UPLC-MS; type: biochemical, human; settings: LYS limit of detection 0.3 µM
arginase 1 [3] = settings: arginase 1 inhibition; ref Ikemoto et al. 12; cited from earlier work
[4] = biological target: T2, recombinant human arginase 1 (Homo sapiens, UniProt P05089); experiment: Arginase 1 inhibition, UPLC-MS measurement of ARG to ORN conversion in HEK293T cell lysate; settings: for % of control activity at the corresponding [Inhibitor] ± SE: mean of two experiments;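 as to all read-outs here: arginase 1–expressing HEK293T lysate at 0.05 mg/mL in pH 7.4 phosphate buffer, inhibitor preincubated 5 min with enzyme, then reaction started by adding ARG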
T2 sequence (P05089 1-322): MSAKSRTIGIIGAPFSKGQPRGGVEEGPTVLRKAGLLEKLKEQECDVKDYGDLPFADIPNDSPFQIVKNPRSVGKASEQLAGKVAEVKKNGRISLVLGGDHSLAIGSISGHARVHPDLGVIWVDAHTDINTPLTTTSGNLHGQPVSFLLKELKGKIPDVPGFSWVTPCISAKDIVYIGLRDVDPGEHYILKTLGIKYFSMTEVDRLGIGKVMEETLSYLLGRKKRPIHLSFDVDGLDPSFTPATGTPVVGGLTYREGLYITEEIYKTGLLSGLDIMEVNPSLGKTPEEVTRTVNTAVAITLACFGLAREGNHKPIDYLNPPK
Protocol: as §1, §2, §3
Ki values were derived from fitting the competitive inhibition equation to experimental data. Ki data are the mean of three singlicate experiments.

arginase 2 [5] = experiment: HOMOARG as a substrate for arginase 2, formation of LYS by UPLC-MS; type: biochemical, human; settings: LYS limit of detection 0.3 µM
arginase 2 [6] = settings: arginase 2 inhibition; ref Colleluori and Ash 17; cited from earlier work

## N=C(N)NCCCC[C@H](N)C(=O)O [HOMOARG, homoarginine]
[1]; ARG 100 µM, inhibitor 1 mM
  inhibition of arginase 2: 47%
[1]; ARG 100 µM, inhibitor 10 mM
  inhibition of arginase 2: 88%
[1]; arginase 2, ARG 100 µM, inhibitor 1 µM
  % of control activity at the corresponding [Inhibitor] ± SE: 107 ± 2%
[1]; arginase 2, ARG 100 µM, inhibitor 10 µM
  % of control activity at the corresponding [Inhibitor] ± SE: 105 ± 5%
[1]; arginase 2, ARG 100 µM, inhibitor 100 µM
  % of control activity at the corresponding [Inhibitor] ± SE: 100 ± 5%
[1]; arginase 2, ARG 100 µM, inhibitor 1,000 µM
  % of control activity at the corresponding [Inhibitor] ± SE: 53 ± 4%
[1]; arginase 2, ARG 100 µM, inhibitor 10,000 µM
  % of control activity at the corresponding [Inhibitor] ± SE: 12 ± 5%
[1]; arginase 2, ARG 2 mM, inhibitor 1 µM
  % of control activity at the corresponding [Inhibitor] ± SE: 95 ± 3%
[1]; arginase 2, ARG 2 mM, inhibitor 10 µM
  % of control activity at the corresponding [Inhibitor] ± SE: 106 ± 2%
[1]; arginase 2, ARG 2 mM, inhibitor 100 µM
  % of control activity at the corresponding [Inhibitor] ± SE: 94 ± 2%
[1]; arginase 2, ARG 2 mM, inhibitor 1,000 µM
  % of control activity at the corresponding [Inhibitor] ± SE: 72 ± 1%
[1]; arginase 2, ARG 2 mM, inhibitor 10,000 µM
  % of control activity at the corresponding [Inhibitor] ± SE: 15 ± 8%
[1]; arginase 2, physiological HOMOARG concentrations (1–10 µM)
  activity retained vs. control: 90%
[1]; arginase 2, poorly fit by uncompetitive, noncompetitive and mixed models
  inhibition model fitting the data: competitive
[1]; physiological LYS and HOMOARG concentrations
  inhibition of arginase 2 at physiological inhibitor concentrations: no significant inhibition
[1]; read-out: IC50 ( ± SE), arginase 2, ARG 2 mM
  IC50: 2.5 mM and 2.52 mM
[1]; read-out: Ki ( ± SE), arginase 2, competitive inhibition model, ARG 0.5–8 mM
  Ki: 1.7 mM and 1.73 mM
Arginase 1 [2]
  substrate activity, formation of LYS from HOMOARG: could not detect; also recorded: not a substrate
Arginase 1 [3]
  Ki: 5 to 5.2 mM
[4]; ARG 100 µM (physiological), inhibitor 1 mM
  inhibition of arginase 1 activity: 30%
[4]; ARG 100 µM (physiological), inhibitor 10 mM
  inhibition of arginase 1 activity: 76%
[4]; ARG 3 mM (Km), inhibitor 1 mM
  inhibition of arginase 1 activity: 14%
[4]; ARG 3 mM (Km), inhibitor 10 mM
  inhibition of arginase 1 activity: 50%
[4]; LYS 100–1000 µM, HOMOARG 1–10 µM
  inhibitory effect on arginase 1 activity at physiological inhibitor concentrations: no significant inhibitory effects
[4]; arginase 1, ARG 100 µM, inhibitor 1 µM
  % of control activity at the corresponding [Inhibitor] ± SE: 112 ± 4%
[4]; arginase 1, ARG 100 µM, inhibitor 10 µM
  % of control activity at the corresponding [Inhibitor] ± SE: 107 ± 4%
[4]; arginase 1, ARG 100 µM, inhibitor 100 µM
  % of control activity at the corresponding [Inhibitor] ± SE: 85 ± 1%
[4]; arginase 1, ARG 100 µM, inhibitor 1,000 µM
  % of control activity at the corresponding [Inhibitor] ± SE: 70 ± 1%
[4]; arginase 1, ARG 100 µM, inhibitor 10,000 µM
  % of control activity at the corresponding [Inhibitor] ± SE: 24 ± 8%
[4]; arginase 1, ARG 3 mM, inhibitor 1 µM
  % of control activity at the corresponding [Inhibitor] ± SE: 106 ± 7%
[4]; arginase 1, ARG 3 mM, inhibitor 10 µM
  % of control activity at the corresponding [Inhibitor] ± SE: 110 ± 1%
[4]; arginase 1, ARG 3 mM, inhibitor 100 µM
  % of control activity at the corresponding [Inhibitor] ± SE: 96 ± 6%
[4]; arginase 1, ARG 3 mM, inhibitor 1,000 µM
  % of control activity at the corresponding [Inhibitor] ± SE: 86 ± 13%
[4]; arginase 1, ARG 3 mM, inhibitor 10,000 µM
  % of control activity at the corresponding [Inhibitor] ± SE: 50 ± 1%
[4]; arginase 1, physiological HOMOARG concentrations (1–10 µM)
  activity retained vs. control: 90%
[4]; arginase 1, poorly fit by uncompetitive, noncompetitive and mixed models
  inhibition model fitting the data: competitive
[4]; read-out: IC50 ( ± SE), arginase 1, ARG 3 mM
  IC50: 8.14 ± 0.52 mM
[4]; read-out: Ki ( ± SE), arginase 1, competitive inhibition model, ARG 0.6–15 mM
  Ki: 6.1 ± 0.5 mM
Arginase 2 [5]
  substrate activity, formation of LYS from HOMOARG: could not detect; also recorded: not a substrate
Arginase 2 [6]
  Ki: 39 mM
